Molecular target: Aβ plaques (Homo sapiens, UniProt P05067)
Assay: Real time multiphoton imaging in APP+/−/PS1+/− mice
Format: in vivo
Settings: 2 mg/kg intravenous
From the text: For assessing viability of molecules as imaging probes in vivo[48], various imaging modalities, such as nuclear imaging (PET/SPECT), optical imaging, and MRI have been used to investigate simultaneously distribution kinetics and target-receptor specificity. While the resolution of PET and MRI allow in vivo imaging at relatively moderate resolution, the multiphoton microscopy enables evaluation of kinetics at a sub-micrometer resolution[49]. […] The generation of various transgenic (tg) animals overexpressing mutant human APP and/or PS1 and PS2, tg APP mice expressing ApoE isoforms including those for Tau offer attractive models for unravelling biochemical pathways prevalent in pathophysiology of AD[50]. […] Literature precedents indicate Aβ deposition by 2 months of age, with gradual quantitative increase at six months^55. […] Compared with barely detectable auto-fluorescence levels prior to imaging transgenic APP^+/−/PS1^+/− mice (Fig. 8, first panel), bright fluorescence appeared almost instantaneously following administration of 5. Fluorescence first appeared in large and small blood vessels within the brain. Within minutes (10 min), the brain parenchyma was uniformly bright in fluorescence, and Aβ deposits were labeled. […]
For imaging 5 labeled plaques, two-photon fluorescence was generated with 800 nm excitation, and fluorescent emission was detected in the range of 435-485nm. […]

Chain of Aβ plaques (P05067 672-711 limits assumed): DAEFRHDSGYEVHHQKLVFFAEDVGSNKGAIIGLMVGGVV

SMILES: CN(C)c1ncc(/C=C\c2nc3cc(OCCF)ccc3[se]2)cn1 [compound 5, (Z)-5-(2-(5-(2-fluoroethoxy)benzo[d][1,3]selenazol-2-yl)vinyl)-N,N-dimethylpyrimidin-2-amine]
- time at which labeling of parenchymal plaques peaked: approximately 10 min
